Source: PMC6630699, “Synthesis and Cytotoxicity Evaluation of DOTA-Conjugates of Ursolic Acid” (Molecules, 2019)
Counter-ions that a name gives are not always drawn.

Assays:
[1] = test system: HT29 (colon adenocarcinoma); test: SRB cytotoxicity assay, HT29; type: cell-based, human; conditions: for EC50: Homo sapiens, HT-29, SRB assay, 72 h of treatment; for Selectivity index SI HT29: SI = EC50 (NIH 3T3)/EC50 (HT29)
From the text: (§1) Due to cytotoxicity evaluation, the prepared UA-DOTA conjugates were screened in rhodamine B assays employing a series of human tumor cell lines and non-malignant mouse fibroblasts (NIH 3T3).
(§2) The cell lines used are human cancer cell lines: A2780 (ovarian carcinoma), HT29 (colon adenocarcinoma), MCF-7 (breast adenocarcinoma), A375 (melanoma), FaDu (pharynx squamous cell carcinoma) and non-malignant mouse fibroblasts NIH 3T3; all cell lines were obtained from the Department of Oncology (Martin-Luther-University Halle-Wittenberg). Cultures were maintained as monolayers in RPMI 1640 medium with L-glutamine (Capricorn Scientific GmbH, Ebsdorfergrund, Germany) supplemented with 10% heat inactivated fetal bovine serum (Sigma-Aldrich Chemie GmbH, Steinheim, Germany) and penicillin/streptomycin (Capricorn Scientific GmbH, Ebsdorfergrund, Germany) at 37 °C in a humidified atmosphere with 5% CO2.
(§3) The cytotoxicity of the compounds was evaluated using the sulforhodamine-B (Kiton-Red S, ABCR) micro culture colorimetric assay. Cells were seeded into 96-well plates on day 0 at appropriate cell densities to prevent confluence of the cells during the period of experiment. After 24 h, the cells were treated with six different concentrations (1, 3, 7, 12, 20, and 30 µM) minimum. The final concentration of DMSO/DMF never exceeded 0.5%, which was non-toxic to the cells. After a 72-h treatment, the supernatant medium from the 96-well plates was discarded, the cells were fixed with 10% trichloroacetic acid (TCA) and allowed to rest at 4 °C. After 24 h fixation, the cells were washed in a strip washer and dyed with SRB solution (100 µL, 0.4%, in 1% acetic acid) for about 20 min. After dying, the plates were washed four times with 1% acetic acid to remove the excess of the dye and allowed to air-dry overnight. Tris base solution (200 µL, 10 mM) was added to each well and absorbance was measured at λ = 570 nm using a 96 well plate reader (Tecan Spectra, Crailsheim, Germany). The EC50 values were averaged from three independent experiments performed each in triplicate calculated from semi logarithmic dose response curves applying a non-linear 4P Hills-slope equation (GraphPad Prism5; variables top and bottom were set to 100 and 0, respectively).

human tumor cell lines = test: SRB cytotoxicity assay, statements over the whole cell line panel; type: cell-based; conditions: summary over all tumor cell lines
From the text: as §1, §2, §3

[2] = test system: A2780 (ovarian carcinoma); test: SRB cytotoxicity assay, A2780; type: cell-based, human; conditions: for EC50: Homo sapiens, A2780, 72 h, SRB assay, 72 h of treatment; for Selectivity index SI A2780: SI = EC50 (NIH 3T3)/EC50 (A2780)
From the text: as §1, §2, §3

[3] = test system: non-malignant mouse fibroblasts NIH 3T3; test: SRB cytotoxicity assay, NIH 3T3; type: cell-based; conditions: NIH3T3, 72 h of treatment
From the text: as §1, §2, §3

[4] = test system: FaDu (pharynx squamous cell carcinoma); test: SRB cytotoxicity assay, FaDu; type: cell-based, human; conditions: for EC50: Homo sapiens, FaDu, SRB assay, 72 h of treatment; for Selectivity index SI FaDu: SI = EC50 (NIH 3T3)/EC50 (FaDu)
From the text: as §1, §2, §3

[5] = test system: MCF-7 (breast adenocarcinoma); test: SRB cytotoxicity assay, MCF-7; type: cell-based, human; conditions: for EC50: Homo sapiens, MCF7, SRB assay, 72 h of treatment; for Selectivity index SI MCF-7: SI = EC50 (NIH 3T3)/EC50 (MCF-7)
From the text: as §1, §2, §3

A375 (melanoma) = test: SRB cytotoxicity assay, A375; type: cell-based, human; conditions: for EC50: Homo sapiens, A-375, SRB assay, 72 h of treatment; for Selectivity index SI A375: SI = EC50 (NIH 3T3)/EC50 (A375)
From the text: as §1, §2, §3

Structure (SMILES)	melting point	EC50 [1]	Selectivity index SI HT29 [1]	EC50 (human tumor cell lines)	EC50 [2]	Selectivity index SI A2780 [2]	EC50 [3]	EC50 [4]	Selectivity index SI FaDu [4]	EC50 [5]	Selectivity index SI MCF-7 [5]	EC50 (A375 (melanoma))	Selectivity index SI A375 (A375 (melanoma))
CC(=O)O[C@H]1CC[C@]2(C)[C@H]3CC=C4[C@@H]5[C@@H](C)[C@H](C)CC[C@]5(C(=O)NCCN5CCN(C(=O)CN6CCN(CC(=O)OCc7ccccc7)CCN(CC(=O)OCc7ccccc7)CCN(CC(=O)OCc7ccccc7)CC6)CC5)CC[C@@]4(C)[C@]3(C)CC[C@H]2C1(C)C [compound 13, Tribenzyl 2,2’,2’’-[10-[2-[4-[2-(3β-acetyloxy-urs-12-en-28-oylamino)ethyl]piperazin-1-yl]-2-oxoethyl]-1,4,7,10-tetraazacyclododecane-1,4,7-triyl]triacetate]	142 to 146 °C	4 ± 0.4 µM	0.90	< 6 µM	2.1 ± 0.4 µM	1.71	3.6 ± 0.5 µM	6 ± 0.1 µM	0.60	3.3 ± 0.2 µM	1.09		
COc1cccc2c1C(=O)c1c(O)c3c(c(O)c1C2=O)C[C@@](O)(C(=O)CO)C[C@@H]3O[C@H]1C[C@H](N)[C@H](O)[C@H](C)O1 [DRC, doxorubicin hydrochloride, reference compound]		0.9 ± 0.2 µM	0.07		0.01 ± 0.01 µM	6.00	0.06 ± 0.03 µM			1.1 ± 0.3 µM	0.05		
O=C(CN1CCNCCN(CC(=O)OCc2ccccc2)CCN(CC(=O)OCc2ccccc2)CC1)OCc1ccccc1 [compound 7, Tribenzyl 2,2’,2’’-(1,4,7,10-tetraazacyclododecane-1,4,7-triyl)triacetate]		2 ± 0.2 µM	2.25	< 5 µM	3.8 ± 0.3 µM	1.18	4.5 ± 0.3 µM	3.9 ± 0.7 µM	1.15	4.1 ± 0.5 µM	1.10	4.7 ± 0.3 µM	0.96
CC(C)(C)OC(=O)CN1CCNCCN(CC(=O)OC(C)(C)C)CCN(CC(=O)OC(C)(C)C)CC1 [compound 6, Tri-tert-butyl 2,2′,2’’-(1,4,7,10-tetraazacyclododecane-1,4,7-triyl)triacetate]	180 to 182 °C	8.7 ± 2.7 µM	1.99	10 to 14 µM	10.5 ± 3 µM	1.65	17.3 ± 0.1 µM	9.5 ± 0.9 µM	1.82	11.3 ± 2.3 µM	1.53	12.4 ± 2.7 µM	1.40
C[C@H]1[C@H](C)CC[C@]2(C(=O)O)CC[C@]3(C)C(=CC[C@@H]4[C@@]5(C)CC[C@H](O)C(C)(C)[C@@H]5CC[C@]43C)[C@H]12 [UA, Ursolic acid]		10.6 ± 0.7 µM	1.24		11.7 ± 0.6 µM	1.12	13.1 ± 1.1 µM			12.7 ± 0.1 µM	1.03		
CC(=O)O[C@H]1CC[C@]2(C)[C@H]3CC=C4[C@@H]5[C@@H](C)[C@H](C)CC[C@]5(C(=O)NCCN5CCN(C(=O)CN6CCN(CC(=O)O)CCN(CC(=O)O)CCN(CC(=O)O)CC6)CC5)CC[C@@]4(C)[C@]3(C)CC[C@H]2C1(C)C [compound 15, 2,2’,2’’-[10-[2-[4-[2-(3β-Acetyloxy-urs-12-en-28-oylamino)ethyl]piperazin-1-yl]-2-oxoethyl]-1,4,7,10-tetraazacyclododecane-1,4,7-triyl]triacetic acid]	206 to 210 °C (dec.)	> 60 µM		> 60 µM	> 60 µM		> 60 µM	> 60 µM		> 60 µM		> 60 µM	
C[C@H]1[C@H](C)CC[C@]2(C(=O)NCCNC(=O)CN3CCN(CC(=O)OC(C)(C)C)CCN(CC(=O)OC(C)(C)C)CCN(CC(=O)OC(C)(C)C)CC3)CC[C@]3(C)C(=CC[C@@H]4[C@@]5(C)CC[C@H](O)C(C)(C)[C@@H]5CC[C@]43C)[C@H]12 [compound 29, Tri-tert-butyl 2,2’,2’’-[10-[2-[2-(3β-hydroxy-urs-12-en-28-oylamino)ethyl]amino-2-oxoethyl]-1,4,7,10-tetraazacyclododecane-1,4,7-triyl]triacetate]		1.7 ± 0.4 µM	1.35		1.6 ± 0.5 µM	1.44	2.3 ± 0.7 µM	2.9 ± 0.4 µM	0.79			2 ± 0.3 µM	1.15
